Experimental findings from paper PMC6017655, “In Silico and in Vitro-Guided Identification of Inhibitors of Alkylquinolone-Dependent Quorum Sensing in Pseudomonas aeruginosa” (Molecules : A Journal of Synthetic Chemistry and Natural …, 2018) are described below.

Series [1] concerns pyocyanin production by PAO1-L. In words: Pyocyanin production assay, PAO1-L. In kind it is cell-based, Pseudomonas aeruginosa. To be noted: 3x IC50, 16 h. Here is the method:
(§1) Pyocyanin is a blue redox-active toxin, produced by P. aeruginosa and strongly-controlled by PqsR via the regulation of pqsE expression. Pyocyanin is essential for the pathogenicity of P. aeruginosa in lung infections. The effect of the PqsR inhibitors on pyocyanin production by PA14 and PAO1-L strains, when grown in the presence or absence of the inhibitors, was investigated (Figure 4).
(§2) The experiment was performed following a published protocol with minor modifications. P. aeruginosa strains were cultured into 5 mL fresh medium overnight. […] Cells were centrifuged at 10,000 RCF for 10 min (Allegra 64R centrifuge, Beckman Coulter, High Wycombe, UK) and the supernatant was transferred to 15 mL falcon tubes with a HSW 10 mL Soft-Ject Syringe and a […] Sartorius syringe-driven filter (Fisher Brand, Loughborough, UK). Pyocyanin pigment was extracted into chloroform by mixing 7.5 mL of supernatant with 4.5 mL of chloroform. Pyocyanin was further extracted into 1.5 mL of 0.2 M HCL, which gave a pink/red solution, and the absorbance was measured at 520 nm.

Another series has as its system AQ production in PA14. Put plainly: Alkylquinolone (HHQ, PQS, HQNO) production by LC-MS/MS, PA14. To be noted: 3x IC50, 16 h, culture supernatant. In kind it is cell-based, Pseudomonas aeruginosa. Here is the method: HQNO, can protect Staphylococcus aureus from vancomycin [31] and contributes to the environmental competitiveness of P. aeruginosa, through its activity as a potent inhibitor of the cytochrome bc1 complex. […] LC-MS/MS was used to quantify the major AQs HHQ, PQS and HQNO after incubation of the P. aeruginosa strains with the hit compounds, for 16 h. The assay was performed using both PAO1-L and PA14 strains which were treated with PqsR antagonists at concentrations three-fold higher than their IC50 values. The results obtained depended on the inhibitor and strain tested (Figure 5).
For each test sample, 100 µL of sterile filtered supernatant (the same preparation as for pyocyanin) was spiked with 10 µL of an internal standard solution (10 µM d4-PQS in MeOH), and diluted with water, to a total volume of 500 µL. Samples were then extracted three times with an 0.5 mL aliquot of ethyl acetate, vortex mixing the aqueous/organic mix for 2 min, then removing the organic phase once the layers had successfully partitioned. For each sample, the combined organic extracts were dried under vacuum and re-dissolved in 100 µL MeOH prior to analysis. For the LC-MS/MS analysis of supernatant extracts, the chromatography was achieved using a Shimadzu series 10AD VP LC system (Columbia, MD, USA). The LC column, maintained at 40 °C, was a Phenomenex Gemini C18 (3.0 µm, 100 × 3.0 mm) (Macclesfield, Cheshire, UK) with an appropriate guard column. Mobile phase A was 0.1% (v/v) formic acid in water containing 2 mM 2-picolinic acid, and mobile phase B 0.1% (v/v) formic acid in methanol. The flow rate throughout the chromatographic separation was 450 µL/min. After an injection of a 2 µL/sample, a binary gradient, beginning initially at 30% B, increased linearly to 99% B over 5 min. The composition remained at 99% B for 3 min, decreased to 30% B over 1 min, and stayed at this composition for 4 min, to allow for column equilibration. […] Where chromatographic peaks for HHQ, HQNO and PQS were detected, a peak area was determined, and analyte peak area/internal standard peak area calculated.

A short description of series [2]: Hepatic microsomal stability, rat. To be noted: liver microsomes, pH 7.4, 0.5 mg/mL protein, NADPH, 37 °C; for microsomal CLint at 1 µM: read-out: Microsomal Stability Rat Clint (intrinsic clearance); for half-life at 1 µM: read-out: Microsomal Stability Rat t1/2. In kind it is in vitro ADME. As for the experimental part: (§3) Dilutions of a 1 mM test compound DMSO stock solution were prepared in buffer (typically 0.01 M phosphate buffered saline (pH 7.4) so that the final DMSO concentration was 0.1% v/v and the final test compound concentration tested was 1 µM. Following addition of protein (0.5 mg/mL final) and NADPH, the samples were pre-incubated for 10 min prior to the start of the incubation by the addition of test compound. The test compounds were then incubated (n = 2; 1 µM final concentration) at 37 °C with tissue microsomes. Aliquots were sampled at several time points and mixed with acetonitrile (containing internal standard) to terminate the reaction and precipitate the proteins. All the samples were mixed, centrifuged and the supernatants analysed by UPLC-MS/MS. The intrinsic clearance (Clint) and half-life (t 1/2) values were determined from the slope of the parent depletion curve. Control compounds for low, moderate and high intrinsic clearance, respectively, for both human and rat microsomes, were included.
A general note: Microsomes from liver hold many membrane-bound enzymes, among them those of drug oxidation.

The test system of series [3] is PqsR (pqsA promoter, PA14 mCTX::PpqsA-lux). Put plainly: Whole cell biosensor reporter assay, PA14 mCTX::PpqsA-lux. Type of series: cell-based, Pseudomonas aeruginosa. To be noted: for IC50: Mean ± SD, n = 3; for activity at 10 µM: PA14, read-out: PA14 Remaining Activity %; for PqsR inhibitory activity (in words), PA14: screen at 10 µM. As for the experimental part: (§4) To determine the ability of the quinolines to inhibit PqsR functionality, the P. aeruginosa biosensor strains, PAO1-L and PA14, incorporating a chromosomal mCTX::PpqsA-lux transcriptional fusion, were used. These report on the activation of the pqsA promoter, regulated by PqsR [25]. PAO1-L and PA14 were chosen because they are genetically amenable and belong to the two major P. aeruginosa genomic groups. The quinolone compounds were incubated with the corresponding strain, and luminescence and optical density readings were recorded to monitor the effect of the quinolines on PqsR activity and bacterial growth, respectively. The compounds were screened at 10 µM concentration, and the activity was compared to a control of DMSO (0.1%) (Figure 3a). To be considered a hit, a threshold of at least 50% inhibition of the test compound, relative to the negative control had to be reached, without affecting bacterial growth. […] Concentration-response experiments were then carried out to determine the IC50 values (Figure 3b,c), which are summarised in Table 1.
(§5) Strains PA14 mCTX::PpqsA-lux and PAO1-L mCTX::PpqsA-lux were constructed using plasmid mini-CTX::PpqsA-lux, as previously described, and the assay was performed according to a published protocol. For screening, the compounds were tested at a concentration of 10 µM, which was prepared from a 10 mM stock, in DMSO.

Series [4] relates to PqsR (pqsA promoter, PAO1-L mCTX::PpqsA-lux). In words: Whole cell biosensor reporter assay, PAO1-L mCTX::PpqsA-lux. Type of series: cell-based, Pseudomonas aeruginosa. Conditions: for IC50: Mean ± SD, n = 3; for activity at 10 µM: PAO1, read-out: PAO1-L Remaining Activity %; for PqsR inhibitory activity (in words), PAO1-L: screen at 10 µM / dose-response. Here is the method: as §4, §5
For orientation: Reporter assays use an easily measured gene product as a stand-in for the process of interest.

For series [5], the system named is pyocyanin production by PA14. In words: Pyocyanin production assay, PA14. To be noted: 3x IC50, 16 h. Type of series: cell-based, Pseudomonas aeruginosa. Here is the method: as §1, §2
Series [6] in a line: Hepatic microsomal stability, human. In kind it is in vitro ADME. To be noted: liver microsomes, pH 7.4, 0.5 mg/mL protein, NADPH, 37 °C; for half-life at 1 µM: read-out: Microsomal Stability Human t1/2. Here is the method:
as §3

Setting [7] is: Pseudomonas aeruginosa, PA14, read-out: IC50 PA14, PpqsA-lux reporter.
Setting [8] is: read-out: IC50 PA14, PpqsA-lux reporter.
Where [9] appears, read: Pseudomonas aeruginosa, PAO1, read-out: IC50 PAO1-L, PpqsA-lux reporter.
[10] abbreviates: strain not singled out in the sentence.

“Also recorded” adds a separate entry of the source. Read-outs that look alike come from different tables or passages of the source.

The term microsomal CLint denotes the capacity of the preparation to metabolise the compound, expressed as a volume cleared per time. By IC50 is commonly meant the concentration that gives 50% inhibition.

In the case of `O=CN1N=C(c2ccccc2)CC1c1cccc(Nc2ccnc3cc(Cl)ccc23)c1` (stereo not shown) [Ia], the “Effect on pyocyanin production (in words), PAO1-L” value in series [1] is “strongest effect”. In the series with AQ production in PA14, the “Inhibition of AQ production (in words), PA14” value is “strongly-inhibited AQ production”. Further, the microsomal CLint at 1 µM in series [2] was 122 µL/min/mg; in series [6], 60.3 µL/min/mg. Besides, the half-life at 1 µM in series [2] worked out at 11.5 min; in series [6] it was 23.3 min. Moreover, the figures for the IC50 in series [3] (setting [7]), in series [3] (setting [8]) and in series [4] (setting [9]) were 2200 nM, 2300 ± 510 nM and 12400 ± 1790 nM, respectively. For the same compound, the activity at 10 µM amounted to 18.7 ± 1.98% in series [3] (Pseudomonas aeruginosa) and 25.8 ± 1.17% in series [4] (Pseudomonas aeruginosa). Moreover, the “PqsR inhibitory activity (in words), PA14” value in series [3] is “strong PqsR inhibitory activity”. Also, the “PqsR inhibitory activity (in words), PAO1-L” value in series [4] is “strong PqsR inhibitory activity; also recorded: modest activity”. In addition, the “Effect on pyocyanin production (in words), PA14” value in series [5] was “strongest effect”.

`CC(=O)N1N=C(c2ccccc2)CC1c1cccc(Nc2ccnc3cc(Cl)ccc23)c1` (stereo not shown) [IIa]: the “Effect on pyocyanin production (in words), PAO1-L” value in series [1] is on record as “weakest effect”. Moreover, the “Reduction of pyocyanin production, PAO1-L” value in series [1] (setting [10]) is listed as “over 25%”. The “Inhibition of AQ production (in words), PA14” value in the series with AQ production in PA14 is given as “moderate effect”. Moreover, the figures for the microsomal CLint at 1 µM in series [2] and in series [6] were 87.8 µL/min/mg and 73 µL/min/mg, respectively. Further, the half-life at 1 µM in series [2] stood at 15.8 min; in series [6], 19 min. For the same compound, the IC50 in series [3] (setting [7]) stood at 3700 nM; in series [3] (setting [8]) it was 4000 ± 1620 nM; in series [4] (setting [9]) it was 1500 nM; in series [4] (read-out: IC50 PAO1-L, PpqsA-lux reporter), 1600 ± 290 nM. The activity at 10 µM in series [3] (Pseudomonas aeruginosa) stood at 19.7 ± 1.9%; in series [4] (Pseudomonas aeruginosa), 31.6 ± 6.6%. For the same compound, the “PqsR inhibitory activity (in words), PA14” value in series [3] is listed as “strong PqsR inhibitory activity”. Further, the “PqsR inhibitory activity (in words), PAO1-L” value in series [4] is on record as “strong PqsR inhibitory activity”. Also, the “Effect on pyocyanin production (in words), PA14” value in series [5] is recorded as “weakest effect”. Besides, the “Reduction of pyocyanin production, PA14” value in series [5] (setting [10]) is on record as “over 25%”.
